Measured values taken from publication PMC9688111, “An Evolutionary Perspective on the Origin, Conservation and Binding Partner Acquisition of Tankyrases” (Biomolecules, 2022).
No end group written: not given here. YFP = yellow fluorescent protein

Experiments:
AqTNKS ART = molecular target: T1, AqTNKS ART (Amphimedon queenslandica, UniProt A0AAN0IWK4); test: differential scanning fluorimetry (SYPRO orange); format: binding; conditions: […] protein, […] compound, pH […]
T1 construct: catalytic ART domain, Thr968-Thr1181; MBP tag removed by TEV; E. coli BL21(DE3), codon-optimized

TNKS1 ART = molecular target: T2, TNKS1 ART (Homo sapiens, UniProt O95271); test: differential scanning fluorimetry (SYPRO orange); format: binding; conditions: […] protein, […] compound, pH […]; adenosine site
T2 construct: gene TNKS; catalytic ART domain; E. coli BL21(DE3)
T2 sequence (O95271 1105-1327 limits assumed): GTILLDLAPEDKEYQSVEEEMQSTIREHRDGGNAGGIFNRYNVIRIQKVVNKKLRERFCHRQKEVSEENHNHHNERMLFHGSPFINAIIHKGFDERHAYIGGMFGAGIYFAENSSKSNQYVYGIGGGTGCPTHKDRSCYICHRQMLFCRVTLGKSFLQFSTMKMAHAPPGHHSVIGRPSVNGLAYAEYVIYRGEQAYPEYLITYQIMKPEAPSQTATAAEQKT

TNKS1 SAM-ART = molecular target: T3, TNKS1 SAM-ART (Homo sapiens, UniProt O95271); test: auto-PARylation, Western blot; format: biochemical; conditions: […] protein; biotin-NAD+/NAD+ ([…]), […] total; […] h, room temperature; labelled compound as tracer
T3 construct: gene TNKS; SAM and ART domains; N-terminal MBP tag kept; E. coli BL21(DE3)
T3 sequence (O95271 1030-1327 limits assumed): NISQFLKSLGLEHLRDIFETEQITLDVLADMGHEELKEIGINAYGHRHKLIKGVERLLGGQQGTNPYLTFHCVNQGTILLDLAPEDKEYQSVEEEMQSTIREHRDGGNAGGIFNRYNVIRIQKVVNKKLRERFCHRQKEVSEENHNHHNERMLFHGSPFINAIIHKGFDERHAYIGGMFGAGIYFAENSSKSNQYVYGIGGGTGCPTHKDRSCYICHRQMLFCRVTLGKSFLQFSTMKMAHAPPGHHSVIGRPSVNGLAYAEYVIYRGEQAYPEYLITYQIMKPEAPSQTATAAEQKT

AqTNKS SAM-ART = molecular target: T4, AqTNKS SAM-ART (Amphimedon queenslandica, UniProt A0AAN0IWK4); test: auto-PARylation, Western blot; format: biochemical; conditions: […] protein; biotin-NAD+/NAD+ ([…]), […] total; […] h, room temperature; labelled compound as tracer
T4 construct: SAM and ART domains, Pro889-Thr1181; N-terminal MBP tag kept; E. coli BL21(DE3); forms multimers

CFP-ARC5 (AqTNKS) = molecular target: T5, CFP-ARC5 (AqTNKS) (Amphimedon queenslandica); test: FRET
T5 chain: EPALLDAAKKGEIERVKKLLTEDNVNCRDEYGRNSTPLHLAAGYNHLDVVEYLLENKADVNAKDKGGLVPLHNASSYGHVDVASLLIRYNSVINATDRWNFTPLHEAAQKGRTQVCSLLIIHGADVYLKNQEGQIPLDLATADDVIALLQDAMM

T1 sequence (A0AAN0IWK4 entry or part of it): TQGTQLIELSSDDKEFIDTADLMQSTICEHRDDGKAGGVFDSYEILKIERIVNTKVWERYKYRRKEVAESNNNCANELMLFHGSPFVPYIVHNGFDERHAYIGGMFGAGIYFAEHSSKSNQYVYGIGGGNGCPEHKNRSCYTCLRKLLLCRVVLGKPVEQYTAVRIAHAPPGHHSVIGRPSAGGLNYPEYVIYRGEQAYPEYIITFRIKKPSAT
T4 sequence (A0AAN0IWK4 entry or part of it): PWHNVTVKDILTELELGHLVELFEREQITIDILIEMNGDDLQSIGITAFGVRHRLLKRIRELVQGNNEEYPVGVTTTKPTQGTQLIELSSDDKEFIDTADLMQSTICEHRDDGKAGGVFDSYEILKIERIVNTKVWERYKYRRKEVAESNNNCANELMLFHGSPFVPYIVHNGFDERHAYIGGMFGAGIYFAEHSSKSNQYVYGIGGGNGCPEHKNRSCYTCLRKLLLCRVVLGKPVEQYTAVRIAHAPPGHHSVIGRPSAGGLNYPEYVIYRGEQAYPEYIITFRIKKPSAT

## Cc1cc(N2C[C@@H](C)N[C@@H](C)C2)ncc1-c1ccc(-c2nc3c(ccn3C)c(=O)[nH]2)cc1 [AZ6102]
AqTNKS ART; nicotinamide site, compound named in Results but not in the Methods list
  Tm shift: For all inhibitors, the melting temperatures for both TNKS1 and AqTNKS were similarly increased

## O=c1[nH]nc2c3c(cccc13)NC(CN1Cc3ccccc3C1)=N2 [E7449]
AqTNKS ART; nicotinamide site
  Tm shift: For all inhibitors, the melting temperatures for both TNKS1 and AqTNKS were similarly increased

## CS(=O)(=O)c1ccc(-c2nnc(/C=C/c3nnc(-c4ccc(C#N)cc4)o3)n2-c2ccccc2Cl)nc1 [G007-LK]
AqTNKS ART; adenosine site
  Tm shift: For all inhibitors, the melting temperatures for both TNKS1 and AqTNKS were similarly increased
TNKS1 ART
  Tm shift: For all inhibitors, the melting temperatures for both TNKS1 and AqTNKS were similarly increased

## NC(=O)c1ccc[n+]([C@@H]2O[C@H](COP(=O)(O)OP(=O)(O)OC[C@H]3O[C@@H](n4cnc5c(N)ncnc54)[C@H](O)[C@@H]3O)[C@@H](O)[C@H]2O)c1 [NAD^+]
TNKS1 SAM-ART
  auto-PARylation, Western blot: PARylation of the proteins was clearly detected for the SAM-ART constructs of AqTNKS and TNKS1
AqTNKS SAM-ART
  auto-PARylation, Western blot: PARylation of the proteins was clearly detected for the SAM-ART constructs of AqTNKS and TNKS1

## COc1ccc(C(=O)C2CCN(CC(=O)N(Cc3nc4c(c(=O)[nH]3)COCC4)CC3CC3)CC2)cc1 [NVP-TNKS656]
AqTNKS ART; dual site
  Tm shift: For all inhibitors, the melting temperatures for both TNKS1 and AqTNKS were similarly increased

## O=c1[nH]c(-c2ccc(C(F)(F)F)cc2)nc2c1CSCC2 [XAV939]
AqTNKS ART; nicotinamide site
  Tm shift: For all inhibitors, the melting temperatures for both TNKS1 and AqTNKS were similarly increased

B1: YFP-REAGDGEE (peptide)
chain: {YFP}-REAGDGEE
CFP-ARC5 (AqTNKS)
  Kd: 98.5 nM
